Assay results published in patent publication US20070010671A1, “Novel quinazoline derivatives and methods of treatment related to the use thereof” (priority 2003, published 2007).

What follows are molecules tested against MCH receptor (Homo sapiens, UniProt Q99705) (assay: High throughput functional screening FLIPR/FDSS6000: inhibition of MCH-evoked intracellular Ca2+ changes). Settings: class by percent of control at 10^-7 M or by IC50; read-out: class.
Type: cell-based
Description: Subsequently, a functional based assay was used to confirm the lead hits, referred to as FLIPR™ (the Fluorometric Imaging Plate Reader) and FDSS6000™ (Functional Drug Screening System). This assay utilized 3 non-endozenous, constitutively active version of the MCH receptor.
The FLIPR and FDSS assays are able to detect intracellular Ca^2+ concentration in cells, which can be utilized to assess receptor activation and determine whether a candidate compound is an, for example, antagonist, inverse agonist or agonist to a Gq-coupled receptor. The concentration of free Ca^2+ in the cytosol of any cell is extremely low, whereas its concentration in the extracellular fluid and endoplasmic reticulum (ER) is very high. Thus, there is a large gradient tending to drive Ca^2+ into the cytosol across both the plasma membrane and ER. The FLIPR™ and FDSS6000™ systems (Molecular Devices Corporation, HAMAMATSU Photonics K.K.) are designed to perform functional cell-based assays, such as the measurement of intracellular calcium for high-throughput screening, The measurement of fluorescent is associated with calcium release upon activation of the Gq-coupled receptors.
Fluorometric Imaging Plate Reader system was used to allow for rapid, kinetic measurements of intracellular fluorescence in 96 well microplates (or 384 well microplates). Simultaneous measurements of fluorescence in all wells can be made by FLIPR or FDSS6000™ every second with high sensitivity and precision. These systems are ideal for measuring cell-based functional assays such as monitoring the intracellular calcium fluxes that occur within seconds after activation of the Gq coupled receptor.
Briefly, the cells are seeded into 96 well at 5.5×10^4 cells/well with complete culture media (Dulbecco's Modified Eagle Medium with 10% fetal bovine serum, 2 mMi L-glutamine, 1 mM sodium pyruvate and 0.5 mg/ml G418, pH 7.4) for the assay next day. On the day of assay, the media is removed and the cells are incubated with 100 μl of loading buffer (4 μM Fluo4-AM in complete culture media containing 2.5 mM Probenicid, 0.5 mg/ml and 0.2% bovine serum albumin) in 5% CO2 incubator at 37° C. for 1 hr. The loading buffer is removed, and the cells are washed with wash buffer (Hank's Balanced Salt Solution containing 2.5 mM Probenicid, 20 mM HEPES, 0.5 mg/ml and 0.2% bovine serum albumm, pH 7.4)). One hundred fifty μl of wash buffer containing various concentrations of test compound is added to the cells, and the cells are incubated in 5% CO2 incubator at 37° C. for 3 min. Fifty μl of wash buffer containing various concentration of MCH are added to each well, and transient changes in [Ca^2+]i evokled bee MCH are monoitored using the FLIPR, or FDSS in 96 shell plates at Ex. 488 nm and Em. 530 nm for 290 second. When antagonist activity of compound is tested, 50 nM of MCH is used.
Use of FLIPR™ and FDSS6000™ can be accomplished by following manufacturer's instruction (Molecular Device Corporation and HAMAMATSU Photonics K.K.).

`CN(C)c1nc(N[C@H]2CC[C@@H](NC(=O)NC34CC5CC(CC(C5)C3)C4)CC2)nc2ccccc12` (relative stereo) [compound 5] and `CN(C)c1nc(N[C@H]2CC[C@@H](NC(=S)NCC3CCCO3)CC2)nc2ccccc12` (relative stereo) [compound 196] cannot be ordered by IC50: greater than 200 nM for the first, greater than 200 nM for the second.

`COC(=O)[C@H](CCSC)NC(=O)N[C@H]1CC[C@@H](Nc2nc(N(C)C)c3ccccc3n2)CC1` (relative stereo) [compound 41, methyl N-{[(cis-4-{[4-(dimethylamino)quinazolin-2-yl]amino}cyclohexyl)amino]carbonyl}methioninate] and `COC(=O)[C@H](Cc1ccccc1)NC(=O)N[C@H]1CC[C@@H](Nc2nc(N(C)C)c3ccccc3n2)CC1` (relative stereo) [compound 62, methyl N-{[(cis-4-{[4-(dimethylamino)quinazolin-2-yl]amino}cyclohexyl)amino]carbonyl}phenylalaninate] cannot be ordered by IC50: less than 50 nM for the first, less than 50 nM for the second.

`CC(NC(=O)N[C@H]1CC[C@@H](Nc2nc(N(C)C)c3ccccc3n2)CC1)c1ccccc1` (relative stereo) [compound 65, N-(cis-4-{[4-(dimethylamino)quinazolin-2-yl]amino}cyclohexyl)-N′-(1-phenylethyl)urea] and `CC(NC(=O)N[C@H]1CC[C@@H](Nc2nc(N(C)C)c3ccccc3n2)CC1)c1ccc(Br)cc1` (relative stereo) [compound 151] cannot be ordered by IC50: less than 50 nM for the first, less than 50 nM for the second.

Same assay, conditions: class by percent of control at 10^−7 M or by IC50; read-out: class

Compared with `CC(NC(=O)[C@H]1CC[C@@H](Nc2nc(N(C)C)c3cc(F)c(F)cc3n2)CC1)c1ccc(Br)cc1` (relative stereo) [Example 1008, cis-N-[1-(4-bromophenyl)ethyl]-4-{[4-(dimethylamino)-6,7-difluoroquinazolin-2-yl]amino}cyclohexanecarboxamide], `CC(NC(=O)[C@H]1CC[C@@H](Nc2nc(N(C)C)c3ccccc3n2)CC1)c1ccc(Br)cc1` (relative stereo) [Example 1140, cis-N-[1-(4-bromophenyl)ethyl]-4-{[4-(dimethylamino)quinazolin-2-yl]amino}cyclohexanecarboxamide] is lower in IC50: 50 to 200 nM for the first, less than 50 nM for the second.

`CN(C)c1nc(N[C@H]2CC[C@@H](CNC(=O)C(O)c3c(F)cccc3F)CC2)nc2ccccc12` (relative stereo) [Example 1092, 2-(2,6-difluorophenyl)-N-[(cis-4-{[4-(dimethylamino)quinazolin-2-yl]amino}cyclohexyl)methyl]-2-hydroxyacetamide] and `CN(C)c1nc(N[C@H]2CC[C@@H](CNC(=O)C(O)c3cccc(F)c3F)CC2)nc2ccccc12` (relative stereo) [Example 1093, 2-(2,3-difluorophenyl)-N-[(cis-4-{[4-(dimethylamino)quinazolin-2-yl]amino}cyclohexyl)methyl]-2-hydroxyacetamide] cannot be ordered by IC50: greater than 200 nM for the first, greater than 200 nM for the second.

`CN(C)c1nc(N[C@H]2CC[C@@H](CNC(=O)C(O)c3cc(F)ccc3F)CC2)nc2ccccc12` (relative stereo) [Example 1094, 2-(2,5-difluorophenyl)-N-[(cis-4-{[4-(dimethylamino)quinazolin-2-yl]amino}cyclohexyl)methyl]-2-hydroxyacetamide] and `CN(C)c1nc(N[C@H]2CC[C@@H](CNC(=O)C(O)c3ccc(F)c(F)c3)CC2)nc2ccccc12` (relative stereo) [Example 1095, 2-(3,4-difluorophenyl)-N-[(cis-4-{[4-(dimethylamino)quinazolin-2-yl]amino}cyclohexyl)methyl]-2-hydroxyacetamide] cannot be ordered by IC50: greater than 200 nM for the first, greater than 200 nM for the second.

First: COc1ccc(C(O)C(=O)NC[C@H]2CC[C@@H](Nc3nc(N(C)C)c4ccccc4n3)CC2)cc1 (relative stereo) [Example 1096, N-[(cis-4-{[4-(dimethylamino)quinazolin-2-yl]amino}-cyclohexyl)-methyl]-2-hydroxy-2-(4-methoxyphenyl)acetamide]
Second: CN(C)c1nc(N[C@H]2CC[C@@H](CNC(=O)C(O)c3ccc(Br)cc3)CC2)nc2ccccc12 (relative stereo) [Example 1098, 2-(4-bromophenyl)-N-[(cis-4-{[4-(dimethylamino)quinazolin-2-yl]amino}cyclohexyl)methyl]-2-hydroxyacetamide]
The IC50 of the first is lower: 50 to 200 nM for the first, greater than 200 nM for the second. The first is the more potent here.

First: CN(C)c1nc(N[C@H]2CC[C@@H](CNC(=O)C(O)c3ccc(Cl)cc3)CC2)nc2ccccc12 (relative stereo) [Example 1099, 2-(4-chlorophenyl)-N-[(cis-4-{[4-(dimethylamino)quinazolin-2-yl]amino}cyclohexyl)methyl]-2-hydroxyacetamide]
Second: CN(C)c1nc(N[C@H]2CC[C@@H](NC(=O)C(O)c3ccc(Cl)cc3)CC2)nc2ccccc12 (relative stereo) [Example 1106, 2-(4-chlorophenyl)-N-(cis-4-{[4-(dimethylamino)quinazolin-2-yl]amino}cyclohexyl)-2-hydroxyacetamide]
The IC50 of the first is higher: greater than 200 nM for the first, 50 to 200 nM for the second. The second is the more potent here.

First: CN(C)c1nc(N[C@H]2CC[C@@H](CNC(=O)C(O)c3cccc(C(F)(F)F)c3)CC2)nc2ccccc12 (relative stereo) [Example 1104, N-[(cis-4-{[4-(dimethylamino)quinazolin-2-yl]amino}-cyclohexyl)-methyl]-2-hydroxy-2-[3-(trifluoromethyl)phenyl]-acetamide]
Second: CN(C)c1nc(N[C@H]2CC[C@@H](NC(=O)C(O)c3cccc(C(F)(F)F)c3)CC2)nc2ccccc12 (relative stereo) [Example 1112, N-(cis-4-{[4-(dimethylamino)quinazolin-2-yl]amino}cyclohexyl)-2-hydroxy-2-[3-(trifluoromethyl)phenyl]acetamide]
The IC50 of the first is higher: 50 to 200 nM for the first, less than 50 nM for the second.

First: COc1ccc(C(O)C(=O)N[C@H]2CC[C@@H](Nc3nc(N(C)C)c4ccccc4n3)CC2)cc1 (relative stereo) [Example 1105, N-(cis-4-{[4-(dimethylamino)quinazolin-2-yl]amino}cyclohexyl)-2-hydroxy-2-(4-methoxyphenyl)acetamide]
Second: CN(C)c1nc(N[C@H]2CC[C@@H](NC(=O)C(O)c3ccc(Br)cc3)CC2)nc2ccccc12 (relative stereo) [Example 1107, 2-(4-bromophenyl)-N-(cis-4-{[4-(dimethylamino)quinazolin-2-yl]amino}cyclohexyl)-2-hydroxyacetamide]
The IC50 of the first is lower: less than 50 nM for the first, 50 to 200 nM for the second. The first is the more potent here.

`CN(C)c1nc(N[C@H]2CC[C@@H](NC(=O)C(O)c3ccc(F)c(F)c3)CC2)nc2ccccc12` (relative stereo) [Example 1108, 2-(3,4-difluorophenyl)-N-(cis-4-{[4-(dimethylamino)quinazolin-2-yl]amino}cyclohexyl)-2-hydroxyacetamide] and `CN(C)c1nc(N[C@H]2CC[C@@H](NC(=O)C(O)c3cc(F)ccc3F)CC2)nc2ccccc12` (relative stereo) [Example 1115, 2-(2,5-difluorophenyl)-N-(cis-4-{[4-(dimethylamino)quinazolin-2-yl]amino}cyclohexyl)-2-hydroxyacetamide] fall in the same range of IC50: 50 to 200 nM for the first, 50 to 200 nM for the second.

`CN(C)c1nc(N[C@H]2CC[C@@H](NC(=O)C(O)c3cccc(F)c3F)CC2)nc2ccccc12` (relative stereo) [Example 1109, 2-(2,3-difluorophenyl)-N-(cis-4-{[4-(dimethylamino)quinazolin-2-yl]amino}cyclohexyl)-2-hydroxyacetamide] and `CN(C)c1nc(N[C@H]2CC[C@@H](NC(=O)C(O)c3c(F)cccc3F)CC2)nc2ccccc12` (relative stereo) [Example 1110, 2-(2,6-difluorophenyl)-N-(cis-4-{[4-(dimethylamino)quinazolin-2-yl]amino}cyclohexyl)-2-hydroxyacetamide] cannot be ordered by IC50: greater than 200 nM for the first, greater than 200 nM for the second.

`COc1cccc(C(O)C(=O)N[C@H]2CC[C@@H](Nc3nc(N(C)C)c4ccccc4n3)CC2)c1` (relative stereo) [Example 1113, N-(cis-4-{[4-(dimethylamino)quinazolin-2-yl]amino}cyclohexyl)-2-hydroxy-2-(3-methoxyphenyl)acetamide] and `CC(NC(=O)[C@H]1CC[C@@H](Nc2nc(N(C)C)c3ccccc3n2)CC1)c1ccc(F)cc1` (relative stereo) [Example 1138, cis-4-{[4-(dimethylamino)quinazolin-2-yl]amino}-N-[1-(4-fluorophenyl)ethyl]cyclohexanecarboxamide] cannot be ordered by IC50: less than 50 nM for the first, less than 50 nM for the second.
